Test results as given in the kinase profiling compilation of Christmann-Franck et al. (2016).

Columns and labels:
Assay in all cases: KINOMEscan competition binding
Conditions in all cases: compound 2.0 µM
SRC (human) = SRC (human) (UniProt P12931)
LATS2 (human) = LATS2 (human) (UniProt Q9NRM7)
MAP2K5 (human) = MAP2K5 (human) (UniProt Q13163)
STK33 (human) = STK33 (human) (UniProt Q9BYT3)
SRMS (human) = SRMS (human) (UniProt Q9H3Y6)
ERBB3 (human) = ERBB3 (human) (UniProt P21860)
PTK2 (human) = PTK2 (human) (UniProt Q05397)
MAP3K1 (human) = MAP3K1 (human) (UniProt Q13233)
Sequence of MAP3K1 (human) (Q13233 whole entry, looked up): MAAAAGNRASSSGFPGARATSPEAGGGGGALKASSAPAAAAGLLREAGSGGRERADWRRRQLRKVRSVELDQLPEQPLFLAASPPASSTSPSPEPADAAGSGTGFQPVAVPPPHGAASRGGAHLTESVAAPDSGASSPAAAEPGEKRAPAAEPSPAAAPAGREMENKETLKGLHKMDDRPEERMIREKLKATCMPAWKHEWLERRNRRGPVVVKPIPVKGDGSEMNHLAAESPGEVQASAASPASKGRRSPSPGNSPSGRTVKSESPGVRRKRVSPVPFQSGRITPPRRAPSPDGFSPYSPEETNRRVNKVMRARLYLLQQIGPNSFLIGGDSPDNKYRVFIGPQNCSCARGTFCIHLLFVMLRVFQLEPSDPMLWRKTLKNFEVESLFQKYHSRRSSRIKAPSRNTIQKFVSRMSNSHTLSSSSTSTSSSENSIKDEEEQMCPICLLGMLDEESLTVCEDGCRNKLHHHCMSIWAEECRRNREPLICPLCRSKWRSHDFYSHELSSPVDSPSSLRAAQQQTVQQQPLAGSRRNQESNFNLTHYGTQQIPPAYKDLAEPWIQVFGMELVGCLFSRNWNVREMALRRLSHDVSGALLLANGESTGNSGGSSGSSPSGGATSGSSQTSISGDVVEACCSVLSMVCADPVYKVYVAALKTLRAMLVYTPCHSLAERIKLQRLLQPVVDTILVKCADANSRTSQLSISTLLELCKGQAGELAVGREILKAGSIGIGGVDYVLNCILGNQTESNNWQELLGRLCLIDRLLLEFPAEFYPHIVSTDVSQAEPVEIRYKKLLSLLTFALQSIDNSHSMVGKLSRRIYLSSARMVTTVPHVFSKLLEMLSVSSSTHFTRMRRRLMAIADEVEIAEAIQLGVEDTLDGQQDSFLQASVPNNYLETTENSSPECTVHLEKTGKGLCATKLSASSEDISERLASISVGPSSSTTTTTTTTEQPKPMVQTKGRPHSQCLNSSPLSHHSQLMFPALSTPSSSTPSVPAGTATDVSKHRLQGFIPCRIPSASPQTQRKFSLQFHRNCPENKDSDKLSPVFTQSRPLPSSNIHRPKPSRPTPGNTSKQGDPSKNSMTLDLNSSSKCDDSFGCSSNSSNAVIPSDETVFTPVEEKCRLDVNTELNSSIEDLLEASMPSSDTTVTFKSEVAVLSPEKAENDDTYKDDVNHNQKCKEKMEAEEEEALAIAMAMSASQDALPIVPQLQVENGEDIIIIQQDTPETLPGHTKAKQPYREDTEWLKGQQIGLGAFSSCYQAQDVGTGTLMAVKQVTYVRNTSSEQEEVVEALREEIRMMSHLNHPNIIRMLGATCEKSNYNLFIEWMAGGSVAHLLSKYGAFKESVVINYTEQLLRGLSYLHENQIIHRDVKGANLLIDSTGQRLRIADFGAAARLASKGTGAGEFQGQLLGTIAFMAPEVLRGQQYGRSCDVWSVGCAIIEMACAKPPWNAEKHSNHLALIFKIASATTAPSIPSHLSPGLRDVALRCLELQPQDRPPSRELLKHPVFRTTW

ITK (human) = ITK (human) (UniProt Q08881)
BRSK2 (human) = BRSK2 (human) (UniProt Q8IWQ3)
[1] = test system: EGFR (human), P00533 [G719C]
CDK13 (human) = CDK13 (human) (UniProt Q14004)
TIE1 (human) = TIE1 (human) (UniProt P35590)
DMPK (human) = DMPK (human) (UniProt Q09013)
GSK3B (human) = GSK3B (human) (UniProt P49841)
Sequence of GSK3B (human) (P49841 whole entry, looked up): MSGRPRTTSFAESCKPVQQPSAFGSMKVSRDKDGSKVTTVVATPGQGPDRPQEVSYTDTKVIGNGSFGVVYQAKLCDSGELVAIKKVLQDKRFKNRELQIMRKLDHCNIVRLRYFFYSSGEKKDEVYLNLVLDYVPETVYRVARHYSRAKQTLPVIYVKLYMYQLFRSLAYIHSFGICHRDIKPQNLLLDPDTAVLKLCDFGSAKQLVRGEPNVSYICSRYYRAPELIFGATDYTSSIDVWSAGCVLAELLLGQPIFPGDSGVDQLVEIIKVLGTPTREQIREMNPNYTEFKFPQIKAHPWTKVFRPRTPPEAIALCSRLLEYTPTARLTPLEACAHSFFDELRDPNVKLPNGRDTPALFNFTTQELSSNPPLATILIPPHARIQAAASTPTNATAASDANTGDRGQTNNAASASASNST

TGFBR1 (human) = TGFBR1 (human) (UniProt P36897)
TLK1 (human) = TLK1 (human) (UniProt Q9UKI8)
NTRK3 (human) = NTRK3 (human) (UniProt Q16288)
OXSR1 (human) = OXSR1 (human) (UniProt O95747)
STK32C (human) = STK32C (human) (UniProt Q86UX6)
Sequence of STK32C (human) (Q86UX6 whole entry, looked up): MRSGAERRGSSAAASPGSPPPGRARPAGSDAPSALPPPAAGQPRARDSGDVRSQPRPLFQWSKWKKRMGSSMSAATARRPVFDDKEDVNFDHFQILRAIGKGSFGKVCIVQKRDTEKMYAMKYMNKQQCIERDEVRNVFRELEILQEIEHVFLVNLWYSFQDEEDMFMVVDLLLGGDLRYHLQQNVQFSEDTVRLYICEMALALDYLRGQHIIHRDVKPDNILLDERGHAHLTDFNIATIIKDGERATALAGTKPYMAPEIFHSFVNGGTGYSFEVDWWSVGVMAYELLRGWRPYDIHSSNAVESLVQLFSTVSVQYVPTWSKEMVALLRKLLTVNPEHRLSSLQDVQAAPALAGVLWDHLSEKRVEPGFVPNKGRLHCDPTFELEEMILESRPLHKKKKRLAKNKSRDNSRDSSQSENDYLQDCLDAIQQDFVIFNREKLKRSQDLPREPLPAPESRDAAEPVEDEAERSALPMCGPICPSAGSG

CDK18 (human) = CDK18 (human) (UniProt Q07002)
[2] = test system: EGFR (human), P00533 [L858R]
PIK3CG (human) = PIK3CG (human) (UniProt P48736)
SRPK2 (human) = SRPK2 (human) (UniProt P78362)
TYRO3 (human) = TYRO3 (human) (UniProt Q06418)
CSK (human) = CSK (human) (UniProt P41240)
[3] = test system: KIT (human), P10721 [V559D/V654A]
[4] = test system: ABL1 (human), P00519 [E255K]
VRK2 (human) = VRK2 (human) (UniProt Q86Y07)
MAP3K11 (human) = MAP3K11 (human) (UniProt Q16584)
FGFR3 (human) = FGFR3 (human) (UniProt P22607)
PRKG2 (human) = PRKG2 (human) (UniProt Q13237)
PTK6 (human) = PTK6 (human) (UniProt Q13882)
Sequence of PTK6 (human) (Q13882 whole entry, looked up): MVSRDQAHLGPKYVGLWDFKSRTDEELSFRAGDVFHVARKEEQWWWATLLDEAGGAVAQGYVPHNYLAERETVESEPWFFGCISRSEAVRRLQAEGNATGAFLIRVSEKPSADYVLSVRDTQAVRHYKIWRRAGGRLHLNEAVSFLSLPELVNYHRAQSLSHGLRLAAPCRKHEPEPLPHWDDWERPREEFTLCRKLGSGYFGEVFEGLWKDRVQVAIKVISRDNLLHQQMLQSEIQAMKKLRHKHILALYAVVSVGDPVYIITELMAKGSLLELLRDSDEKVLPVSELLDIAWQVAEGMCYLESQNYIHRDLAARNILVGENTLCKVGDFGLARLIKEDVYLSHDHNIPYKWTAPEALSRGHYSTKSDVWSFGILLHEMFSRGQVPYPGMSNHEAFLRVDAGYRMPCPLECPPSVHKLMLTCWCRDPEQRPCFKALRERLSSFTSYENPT

PRKAA1 (human) = PRKAA1 (human) (UniProt Q13131)
CLK4 (human) = CLK4 (human) (UniProt Q9HAZ1)
Sequence of CLK4 (human) (Q9HAZ1 whole entry, looked up): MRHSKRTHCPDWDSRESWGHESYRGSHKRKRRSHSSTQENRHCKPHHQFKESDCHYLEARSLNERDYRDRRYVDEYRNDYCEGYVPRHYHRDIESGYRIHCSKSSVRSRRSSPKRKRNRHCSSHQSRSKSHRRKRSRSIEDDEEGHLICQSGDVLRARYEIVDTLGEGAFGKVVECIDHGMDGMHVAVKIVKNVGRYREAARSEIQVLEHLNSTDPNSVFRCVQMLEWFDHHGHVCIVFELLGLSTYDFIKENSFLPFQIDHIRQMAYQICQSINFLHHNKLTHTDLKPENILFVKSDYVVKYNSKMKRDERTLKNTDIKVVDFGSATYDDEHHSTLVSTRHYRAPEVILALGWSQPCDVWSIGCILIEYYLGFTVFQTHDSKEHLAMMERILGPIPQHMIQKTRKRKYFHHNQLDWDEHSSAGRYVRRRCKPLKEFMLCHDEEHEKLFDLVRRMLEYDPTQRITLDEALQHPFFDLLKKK

IKBKB (human) = IKBKB (human) (UniProt O14920)
LCK (human) = LCK (human) (UniProt P06239)
CAMK2A (human) = CAMK2A (human) (UniProt Q9UQM7)
Sequence of CAMK2A (human) (Q9UQM7 whole entry, looked up): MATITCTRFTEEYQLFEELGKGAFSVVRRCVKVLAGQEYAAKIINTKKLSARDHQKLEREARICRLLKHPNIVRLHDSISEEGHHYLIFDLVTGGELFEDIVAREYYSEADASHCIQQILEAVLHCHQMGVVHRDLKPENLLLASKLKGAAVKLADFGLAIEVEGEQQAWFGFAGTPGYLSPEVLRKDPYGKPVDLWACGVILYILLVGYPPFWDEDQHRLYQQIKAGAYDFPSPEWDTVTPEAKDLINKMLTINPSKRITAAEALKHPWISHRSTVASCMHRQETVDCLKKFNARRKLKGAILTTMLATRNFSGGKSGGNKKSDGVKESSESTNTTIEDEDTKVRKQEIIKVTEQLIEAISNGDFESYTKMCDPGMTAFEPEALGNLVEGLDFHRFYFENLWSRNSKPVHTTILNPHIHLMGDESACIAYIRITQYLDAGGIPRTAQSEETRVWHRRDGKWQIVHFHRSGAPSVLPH

EPHB3 (human) = EPHB3 (human) (UniProt P54753)
[5] = target: TYK2 JH2 pseudokinase (human) (UniProt P29597)
EPHA1 (human) = EPHA1 (human) (UniProt P21709)
HUNK (human) = HUNK (human) (UniProt P57058)
Sequence of HUNK (human) (P57058 whole entry, looked up): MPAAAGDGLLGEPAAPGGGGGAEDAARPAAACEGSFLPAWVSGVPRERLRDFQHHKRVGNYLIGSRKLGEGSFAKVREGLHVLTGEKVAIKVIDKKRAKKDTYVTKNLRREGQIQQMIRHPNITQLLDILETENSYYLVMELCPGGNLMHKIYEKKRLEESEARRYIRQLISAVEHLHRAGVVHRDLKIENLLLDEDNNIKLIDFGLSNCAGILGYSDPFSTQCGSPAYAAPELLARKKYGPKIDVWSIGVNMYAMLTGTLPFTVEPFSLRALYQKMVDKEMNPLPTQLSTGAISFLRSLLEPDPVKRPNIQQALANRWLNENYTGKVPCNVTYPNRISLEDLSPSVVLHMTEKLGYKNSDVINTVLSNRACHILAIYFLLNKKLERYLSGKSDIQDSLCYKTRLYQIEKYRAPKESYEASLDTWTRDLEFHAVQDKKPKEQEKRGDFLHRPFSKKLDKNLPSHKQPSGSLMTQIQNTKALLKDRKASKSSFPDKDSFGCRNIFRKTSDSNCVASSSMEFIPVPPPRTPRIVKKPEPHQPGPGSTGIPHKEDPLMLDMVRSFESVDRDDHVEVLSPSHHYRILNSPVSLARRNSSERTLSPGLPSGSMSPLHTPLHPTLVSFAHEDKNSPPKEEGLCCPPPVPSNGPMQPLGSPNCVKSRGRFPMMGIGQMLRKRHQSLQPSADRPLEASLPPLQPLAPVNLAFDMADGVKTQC

BMPR1B (human) = BMPR1B (human) (UniProt O00238)
Sequence of BMPR1B (human) (O00238 whole entry, looked up): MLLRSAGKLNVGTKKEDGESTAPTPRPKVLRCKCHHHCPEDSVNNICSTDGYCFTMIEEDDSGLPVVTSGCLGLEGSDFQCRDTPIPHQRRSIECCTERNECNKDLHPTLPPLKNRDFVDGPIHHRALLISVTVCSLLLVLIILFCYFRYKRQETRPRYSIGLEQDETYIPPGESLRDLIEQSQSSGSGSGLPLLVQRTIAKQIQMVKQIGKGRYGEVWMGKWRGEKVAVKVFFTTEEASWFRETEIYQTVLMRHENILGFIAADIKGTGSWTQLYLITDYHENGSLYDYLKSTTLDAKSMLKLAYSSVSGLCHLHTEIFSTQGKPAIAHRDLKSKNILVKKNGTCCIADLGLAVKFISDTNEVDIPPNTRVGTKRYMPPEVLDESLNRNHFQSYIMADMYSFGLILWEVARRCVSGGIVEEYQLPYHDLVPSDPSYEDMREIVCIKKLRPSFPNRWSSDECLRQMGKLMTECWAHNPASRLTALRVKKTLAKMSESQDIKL

N#Cc1ccc2ncnc(NCCc3ccc4ccccc4c3)c2c1
kinase still bound, per cent of control (SRC (human)): 94%
kinase still bound, per cent of control (LATS2 (human)): 100%
kinase still bound, per cent of control (MAP2K5 (human)): 85%
kinase still bound, per cent of control (STK33 (human)): 96%
kinase still bound, per cent of control (SRMS (human)): 84%
kinase still bound, per cent of control (ERBB3 (human)): 100%
kinase still bound, per cent of control (PTK2 (human)): 88%
kinase still bound, per cent of control (MAP3K1 (human)): 92%
kinase still bound, per cent of control (ITK (human)): 80%
kinase still bound, per cent of control (BRSK2 (human)): 100%
kinase still bound, per cent of control [1]: 96%
kinase still bound, per cent of control (CDK13 (human)): 100%
kinase still bound, per cent of control (TIE1 (human)): 90%
kinase still bound, per cent of control (DMPK (human)): 100%
kinase still bound, per cent of control (GSK3B (human)): 89%
kinase still bound, per cent of control (TGFBR1 (human)): 100%
kinase still bound, per cent of control (TLK1 (human)): 92%
kinase still bound, per cent of control (NTRK3 (human)): 100%
kinase still bound, per cent of control (OXSR1 (human)): 100%
kinase still bound, per cent of control (STK32C (human)): 100%
kinase still bound, per cent of control (CDK18 (human)): 97%
kinase still bound, per cent of control [2]: 96%
kinase still bound, per cent of control (PIK3CG (human)): 68%
kinase still bound, per cent of control (SRPK2 (human)): 100%
kinase still bound, per cent of control (TYRO3 (human)): 87%
kinase still bound, per cent of control (CSK (human)): 100%
kinase still bound, per cent of control [3]: 100%
kinase still bound, per cent of control [4]: 100%
kinase still bound, per cent of control (VRK2 (human)): 100%
kinase still bound, per cent of control (MAP3K11 (human)): 89%
kinase still bound, per cent of control (FGFR3 (human)): 100%
kinase still bound, per cent of control (PRKG2 (human)): 100%
kinase still bound, per cent of control (PTK6 (human)): 96%
kinase still bound, per cent of control (PRKAA1 (human)): 89%
kinase still bound, per cent of control (CLK4 (human)): 60%
kinase still bound, per cent of control (IKBKB (human)): 100%
kinase still bound, per cent of control (LCK (human)): 84%
kinase still bound, per cent of control (CAMK2A (human)): 99%
kinase still bound, per cent of control (EPHB3 (human)): 100%
kinase still bound, per cent of control [5]: 92%
kinase still bound, per cent of control (EPHA1 (human)): 89%
kinase still bound, per cent of control (HUNK (human)): 100%
kinase still bound, per cent of control (BMPR1B (human)): 90%
